Measurements from US20160280651A1, “COMPOUNDS THAT INDUCE ABA RESPONSES” (THE REGENTS OF THE UNIVERSITY OF CALIFORNIA, priority 2013, published 2016).

How the values were obtained:
[1] = tested on: Arabidopsis plants; experiment: Transpirational water loss of detached leaves; format: in vivo; settings: 25 μM spray
Procedure: Physiological assays were performed on Arabidopsis plants grown at 22±2° C. and relative humidity (RH) 45±10% under a 16/8-h light/dark cycle. For transpirational water loss analyses in Arabidopsis, plants were pre-treated by aerosol spray of 4 ml solution containing 25 μM compound and 0.05% Tween-20. 12 4-week old plants were sprayed per compound or control analyzed. After overnight pre-treatment with compounds, the aerial portions were detached from roots, and their fresh weight measured at 20 min intervals over a 2 hour time period. To measure stomatal aperture, plants were pre-treated with compounds as described above, covered with plastic lids to maintain high RH and after overnight pre-treatment leaf epidermal impressions were obtained using Suzuki's Universal Micro-Printing (SUMP) method using SUMP impression solution with SUMP B plates (SUMP Laboratory). The leaf impressions were analyzed by light microscopy and stomatal apertures were determined from the pore widths using ImageJ 1.43v software (National Institutes of Health, USA). […] Pots were covered in Parafilm to so that the water loss measured was transpiration mediated. Soil water content % was determined by measuring pot weight and computed by removing dry soil weight from total weight.

[2] = tested on: Arabidopsis plants; experiment: Arabidopsis drought stress assay; format: in vivo; settings: 25 μM, aerosol every 3 days
Procedure: (§1) FIG. 8A-FIG. 8B. Quinabactin confers drought stress tolerance to wild-type plants. (A) Effect of quinabactin on Arabidopsis drought tolerance. Two-week-old plants were subjected to drought stress by withholding water and were photographed after 12 days. During the drought period, plants were treated every 3 days with 25 μM compound. Plants were re-hydrated after 2 weeks drought treatment; the number of surviving plants (out of total number tested) for each treatment is shown next to each image. (B) Effects of quinabactin on soybean. Two-week-old plants were subjected to drought stress by withholding water and photographed after 8 days drought treatment. […]
(§2) Physiological assays were performed on Arabidopsis plants grown at 22±2° C. and relative humidity (RH) 45±10% under a 16/8-h light/dark cycle. […] 12 4-week old plants were sprayed per compound or control analyzed. After overnight pre-treatment with compounds, the aerial portions were detached from roots, and their fresh weight measured at 20 min intervals over a 2 hour time period. […] The leaf impressions were analyzed by light microscopy and stomatal apertures were determined from the pore widths using ImageJ 1.43v software (National Institutes of Health, USA). […] Pots were covered in Parafilm to so that the water loss measured was transpiration mediated. […]

[3] = tested on: soybean plants; experiment: Soybean drought stress assay; format: in vivo; settings: 50 μM, aerosol every 3 days
Procedure: as §1, §2

[4] = tested on: MAPKKK18 promoter::GUS reporter; experiment: MAPKKK18 promoter::GUS ABA-responsive reporter gene assay; format: in vivo, Arabidopsis; settings: guard cells, vascular tissues of leaves and roots, radicle tips of imbibed seeds
Procedure: Existing ABA-responsive promoter-GUS fusions are, in our experience, not ideal due to either high background levels or relatively low induction levels in response to ABA. […] We therefore characterized the effects of agonists on MAPKKK18 promoter::GUS reporter transgenic plants. GUS staining was performed in a reaction buffer of the following composition: 50 mM sodium phosphate buffer pH 7.0, 0.05% Tween-20, 2.5 mM potassium ferrocyanide, 2.5 mM potassium ferricyanide, 1 mM X-gluc. The reaction buffer was vacuum infiltrated into test samples for 10 min two times and then incubated at 37° C. for 5 h. The reaction was stopped by washing the samples with 70% ethanol, and chlorophyll pigments bleached by incubation at 65° C.

[5] = tested on: HVA1 and HvDRF1; experiment: Quantitative RT-PCR of ABA-responsive genes in barley; format: in vivo
Text: FIG. 13A-FIG. 13E. LC66C6 modulates ABA responses in diverse species. Germination inhibition (A) and transpirational water loss in detached leaves 2-hours after detachment (B) in response to compounds shown. The expression of ABA-responsive marker genes in Soybean (C), Barley (D) and Maize (E) after application of chemicals. D, P, L and A indicate DMSO, pyrabactin, LC66C6 and (+)-ABA, respectively.
Total RNA was isolated using Plant RNA purification reagent (Invitrogen, USA) according to the manufacturer's instructions. cDNA was synthesized from 1 μg of total RNA using the QantiTec reverse transcription kit (Qiagen, USA). Real-time PCR using Maxima® SYBR Green/Fluorescein qPCR Master Mix (Fermentas) was performed with the iQ5 real-time PCR detection system (Bio-Rad, Hercules, Calif.). The relative amounts of target mRNAs were determined using the relative standard curve method and were normalized by relative amount of internal control mRNA. Biological triplicate experiments were performed.

[6] = tested on: ABA-responsive genes; experiment: ABA-responsive gene expression in moss; format: in vivo, Physcomitrella patens; settings: 200 μM for 3 h
Procedure: FIG. 17A-FIG. 17D. The effect of ABA and its agonists in Physcomitrella patens and Chlamydomonas. Protonemal growth images (A) and quantitative analysis (B) of the effects of ABA and agonists on Phsycomitrella patens. Protonema were grown on 200 μM of specific test chemical for 10 days. […] Pyrabactin bleached protonema. (C) The expression of ABA-responsive genes of Physcomitrella patens. Protonema were treated with 200 μM chemical solutions for 3 h. (D) Colony growth of Chlamydomonas on the chemical with salinity stress and osmotic stress. There was no effect of ABA and LC66C6 on the Chlamydomonas growth with and without stresses.

## CCCN1C(=O)CCc2cc(NS(=O)(=O)Cc3ccc(C)cc3)ccc21 [LC66C6]
[1]; abi1-1 mutant
  Transpirational water loss in detached leaves: did not reduce transpirational water loss
[1]; wild-type and aba2 mutant
  Transpirational water loss in detached leaves: reduced the amount of transpirational water loss
[2]
  Drought stress tolerance: confers drought stress tolerance in Arabidopsis plants similar to that conferred by treatment with (+)-ABA
[3]
  Drought stress tolerance: confers drought stress tolerance similar to that conferred by treatment with (+)-ABA
[4]
  Tissue pattern of reporter gene expression: induces expression of reporter genes in the same tissues as (+)-ABA
[5]
  Expression of ABA-responsive genes HVA1 and HvDRF1: moderately induces
[6]
  Expression of ABA-responsive genes in moss: can induce the expression of ABA-responsive genes in moss
